Like-named read-outs stand apart in the source and are kept apart here.
Columns and labels:
[1] = test system: NCI-H460-luc2 tumor xenograft; test: Thermal cancer therapy with repeated sensitizer dosing, weekly bioluminescence imaging of tumor size over four weeks (Example 1, FIG. 13); assay type: in vivo, BALB/c athymic nude mice; settings: i.v. three times per week, 0.1 ml of 0.2 mg/ml (iron dextran, iron sucrose) or 5 mg/ml (transferrin); 100 W 30 min or more; four weeks
Description: After 4 hr, thermal treatment for 30 min or more using a radio-frequency hyperthermia system (EHY-2000, Oncothermia) with an energy dose of 100 W was performed for a total of four weeks, and the size of tumorous tissue was monitored every week. […] In the group to which transferrin was administered, 0.1 ml of the transferrin aqueous solution having a concentration of 5 mg/ml was intravenously injected. As such, the non-treated group and the saline-treated group were used as controls.
In order to analyze the size of tumorous tissue, bioluminescence imaging was regularly performed at an interval of one week, and analysis was performed using Igor Pro imaging analysis software.

[2] = test system: NCI-H460-luc2 tumor xenograft; test: Thermal cancer therapy with sensitizer, bioluminescence imaging of tumor size in the last week (Example 1, FIG. 12); assay type: in vivo, BALB/c athymic nude mice; settings: i.v. 1 mg/kg metal ion-bound material or 20 mg/kg transferrin, 100 W 10 min, three times per week, four weeks
Description: Next, the potential to treat cancer was evaluated using the metal ion-bound material as the sensitizer upon thermal therapy. A lung cancer cell line NCI-H460-luc2 ([…] Sciences) was cultured, and 5×10^6 cells were subcutaneously injected into 6 to 8-week-old female BALB/c athymic nude mice (Damul Science), and the mice were bred for about 10 days so as to grow tumorous tissue to a size of 100 mm^3 or more, yielding the tumor xenograft animal models for the evaluation of cancer treatment effects. […] After 4 hr, thermal treatment was performed three times per week for a total of four weeks using a radio-frequency hyperthermia system (EHY-2000, Oncothermia) with an energy dose of 100 W for 10 min. As such, a non-treated group and a saline-treated group were set as controls. In order to analyze the size of tumorous tissue in the last week, bioluminescence imaging was performed. For bioluminescence of a luciferase-expressing cancer cell line NCI-H460-luc2, D-luciferin (Xenogen, USA) was intraperitoneally injected at a concentration of 150 mg luciferin/kg/d into the mice, the mice were anesthetized through inhalation using a mixture of isoflurane gas and oxygen, and luminous cancer cells were subjected to overlap photographing using a Xenogen imager (IVIS 200), and analyzed using Igor Pro imaging analysis software.

[3] = In vivo accumulation of metal ion in normal and tumorous tissue, ICP-MS (Test Example 5); parameters: species or system BALB/c athymic nude mice; concentration of iron ion (ICP-MS): unit not given here; settings: 1 mg/kg i.v., after 24 hr
Description: In order to evaluate the accumulation of the administered metal ion in tumorous tissue through in vivo animal testing, tumor xenograft animal models were manufactured as follows. Specifically, a lung cancer cell line NCI-H460-luc2 (Califer Life Sciences) was cultured, and 5×10^6 cells were subcutaneously injected into 6- to 8-week-old female BALB/c athymic nude mice (Damul Science), and the mice were bred for about 10 days so as to grow tumorous tissue to a size of 100 mm^3 or more, yielding the tumor xenograft animal models.
After 24 hr, in order to carry out inductively coupled plasma mass spectrometry (ICP-MS), 1 g of each tissue was ground using a tissue grinder in an ice bath, and 1 ml of the ground solution was dried at −60° C. in a vacuum of 7 μmHg for 24 hr. The dried powder was added with 2 ml of 6N HCl, placed in a sealed glass reactor, and cultured in an incubator at 55° C. After 12 hr or longer, each sample was mixed in a vortex and then centrifuged at 1,000 rpm for 15 min, and the supernatant was dried with nitrogen gas, added with 1 ml of 0.01N HCl, mixed in a vortex, and then centrifuged at 1,000 rpm for 15 min. The supernatant was recovered, and the concentrations of the metal ions in the normal tissue and the tumorous tissue were measured through ICP-MS (Varian 800-MS, Palo Alto, US).

[4] = test system: NCI-H460-luc2 tumor xenograft; test: Temperature of normal and tumorous tissue of tumor xenograft mice on application of electromagnetic waves after sensitizer (Example 1, FIGS. 9 to 11); assay type: in vivo, BALB/c athymic nude mice; settings: i.v. iron sucrose 1 mg/kg or transferrin 20 mg/kg, 4 hr after administration, 100 W for 3 min
Description: To this end, a lung cancer cell line NCI-H460-luc2 (Califer Life Sciences) was cultured, and 5×10^6 cells were subcutaneously injected into 6 to 8-week-old female BALB/c athymic nude mice (Damul Science), and the mice were bred for about 10 days so as to grow tumorous tissue to a size of 100 mm^3 or more, yielding the tumor xenograft animal models for the evaluation of cancer treatment effects.
As the sensitizing composition for thermal therapy, iron sucrose was prepared in the same manner as in Test Example 1, and 0.1 ml of the iron sucrose aqueous solution having a concentration of 0.2 mg/ml was intravenously injected into the established tumor xenograft mice so as to reach a dose of 1 mg/kg.
As the sensitizing composition for thermal therapy, “iron ion-bound apotransferrin” (transferrin) was prepared in the same manner as in Test Example 3, and 0.1 ml of the transferrin aqueous solution having a concentration of 5 mg/ml was intravenously injected into the established tumor xenograft mice so as to reach a dose of 20 mg/kg.
As the control, saline was administered. 4 hr after administration, electromagnetic waves were applied in an energy dose of 100 W for 3 min using a radio-frequency hyperthermia system (EHY-2000, Oncothermia), and the temperatures of normal tissue and tumorous tissue were measured using a thermal imaging device (E60, Korea Rental, Korea).

apotransferrin = apotransferrin (Homo sapiens, UniProt P02787); settings: apotransferrin 200 mg/dL, 37° C. 30 min
Sequence of apotransferrin (P02787 20-698): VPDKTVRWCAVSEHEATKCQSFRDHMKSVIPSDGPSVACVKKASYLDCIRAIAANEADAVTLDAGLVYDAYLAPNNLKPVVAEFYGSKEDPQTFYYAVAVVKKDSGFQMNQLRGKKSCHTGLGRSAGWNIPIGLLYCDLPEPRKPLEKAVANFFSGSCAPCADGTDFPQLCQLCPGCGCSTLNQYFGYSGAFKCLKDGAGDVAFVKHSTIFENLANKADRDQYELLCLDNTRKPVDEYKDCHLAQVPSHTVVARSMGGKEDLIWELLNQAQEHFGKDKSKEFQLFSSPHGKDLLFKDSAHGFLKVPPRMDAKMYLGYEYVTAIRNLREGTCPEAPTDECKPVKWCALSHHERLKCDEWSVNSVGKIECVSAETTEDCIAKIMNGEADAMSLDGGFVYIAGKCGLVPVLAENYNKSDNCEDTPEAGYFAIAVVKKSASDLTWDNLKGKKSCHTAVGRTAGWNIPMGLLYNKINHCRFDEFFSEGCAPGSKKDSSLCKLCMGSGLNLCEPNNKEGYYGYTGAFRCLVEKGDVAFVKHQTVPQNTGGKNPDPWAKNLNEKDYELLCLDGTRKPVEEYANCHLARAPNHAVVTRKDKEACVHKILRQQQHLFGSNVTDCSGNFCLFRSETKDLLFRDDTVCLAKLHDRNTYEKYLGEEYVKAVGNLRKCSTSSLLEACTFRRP
Description: In order to evaluate binding capacity of the metal ion to apotransferrin, transferrin binding capacity (Unsaturated Iron-Binding Capacity, UIBC) was measured as follows depending on the concentration of iron ion (ferric iron, FeIII+).
Specifically, in order to prepare iron ion aqueous solutions, 3.6 g of FeCl3 (Sigma Aldrich, USA) was dissolved in 400 ml of distilled water with stirring for 20 min or longer, and then the pH of the resulting solution was adjusted to 9 with continuous stirring while a 5M NaOH solution was added dropwise. When a red brownish precipitate appeared, it was stirred at 90° C. for 2 hr and was then centrifuged at 5,000 rpm for 5 min, thus obtaining a ferric hydroxide precipitate, which was then washed with distilled water and dried. The ferric hydroxide in powder form was dissolved in distilled water, yielding ferric hydroxide solutions having concentrations of […]. Each of the ferric hydroxide solutions at individual concentrations was added with 200 mg/dL of apotransferrin (Sigma Aldrich, USA), and mixed in a vortex for 1 min, followed by allowing the reaction between apotransferrin and iron ion to progress at 37° C. for 30 min.
In order to measure the unsaturated iron-binding capacity (UIBC) of apotransferrin, a Ferrozine colorimetric method was used. As the iron standard, ferrous chloride was prepared at a concentration of […] in hydroxylamine hydrochloride, and the reaction solution of apotransferrin and iron was prepared as a test group. Specifically, 2 ml of 0.5M Tris buffer (pH 8) was aliquoted into all test tubes. The blank test tube was filled with 1 ml of distilled water, the standard test tube was filled with 0.5 ml of distilled water and 0.5 ml of the iron standard, and the experimental test tube was filled with 0.5 ml of the reaction solution of apotransferrin and iron ion and 0.5 ml of the iron standard, followed by mixing in a vortex for 1 min.
A spectrophotometer was zeroed at 560 nm, and the absorbance A1 was measured. Next, a 16.6 mM Ferrozine hydroxylamine hydrochloride solution was placed in an amount of […] in each of the test tubes, followed by mixing in a vortex for 1 min. All the test tubes were cultured at 37° C. for 10 min, and the absorbance A2 at 560 nm was measured. The absorbance A560 at 560 nm was calculated by subtracting the absorbance A1 from the absorbance A2.
The unsaturated iron-binding capacity (UIBC) was calculated as follows. UIBC=[standard conc.]−[standard conc.]×Test A560/Standard A560

Iron dextran [reference compound]
growth of cancer upon thermal treatment using electromagnetic waves (bioluminescence imaging) [1]: significantly reduced | cancer treatment effects through thermal therapy (size of tumorous tissue, bioluminescence imaging) [2]: excellent

ferric hydroxide sucrose complex [Iron sucrose]
growth of cancer upon thermal treatment using electromagnetic waves (bioluminescence imaging) [1]: significantly reduced | Fold increase of iron ion vs saline ([3]; Brain): 2.05 | concentration of iron ion (ICP-MS) ([3]; Brain): 46.2 ± 8.6 | Fold increase of iron ion vs saline ([3]; Heart): 3.08 | concentration of iron ion (ICP-MS) ([3]; Heart): 99.2 ± 2.8 | Fold increase of iron ion vs saline ([3]; Kidney): 1.05 | concentration of iron ion (ICP-MS) ([3]; Kidney): 59.8 ± 4.1 | Fold increase of iron ion vs saline ([3]; Liver): 2.26 | concentration of iron ion (ICP-MS) ([3]; Liver): 168.2 ± 37.3 | Fold increase of iron ion vs saline ([3]; Muscle): 0.98 | concentration of iron ion (ICP-MS) ([3]; Muscle): 28.9 ± 22.1 | Fold increase of iron ion vs saline ([3]; Stomach): 2.99 | concentration of iron ion (ICP-MS) ([3]; Stomach): 83.1 ± 27.7 | concentration of iron ion (ICP-MS) ([3]; Tumor): 44.4 ± 3.9 | Fold increase of iron ion vs saline ([3]; Tumor, 1 mg/kg): ≥ 3.3 | Fold increase of iron ion vs saline ([3]; Tumor, listed as Fe-Sucrose, 1 mg/kg): 3.29 | changes in the temperature before and after the application of electromagnetic waves ([4]; normal tissue): 1 °C | changes in the temperature before and after the application of electromagnetic waves ([4]; tumorous tissue): 1.9 °C | cancer treatment effects through thermal therapy (size of tumorous tissue, bioluminescence imaging) [2]: excellent

[Fe+3].[OH-].[OH-].[OH-] [iron ion, ferric hydroxide]
UIBC (apotransferrin; Iron conc. 10 μg/dL): 498 µg/dL | UIBC (apotransferrin; Iron conc. 50 μg/dL): 481 µg/dL | UIBC (apotransferrin; Iron conc. 200 μg/dL): 332 µg/dL | UIBC (apotransferrin; Iron conc. 500 μg/dL): 119 µg/dL
